Assays:
Zymoseptoria tritici = assay: Leaf blotch of wheat (SEPTTR) disease control on wheat seedlings; format: in vivo; design: key to SEPTTR 1DP, HV activity at 100 ppm (% control rating) / SEPTTR 3DC, HV activity at 100 ppm (% control rating) / SEPTTR disease control, 1DP / SEPTTR disease control, 3DC / SEPTTR 1DP disease control rating, HV activity / SEPTTR 3DC disease control rating, HV activity / SEPTTR 3DC, LV activity at 125.1 g/H (% Control rating) / SEPTTR 1DP, LV activity at 125.1 g/H (% Control rating) / SEPTTR 1DP disease control rating, LV activity at 125.1 g/H / SEPTTR 3DC disease control rating, LV activity at 125.1 g/H / SEPTTR 3DC disease control rating, HV activity at 100 ppm / SEPTTR 1DP disease control rating, HV activity at 100 ppm / HV activity at 100 ppm SEPTTR 3DC (disease control rating) / HV activity at 100 ppm SEPTTR 1DP (disease control rating) / LV activity at 125.1 g/H SEPTTR 1DP (disease control rating) / LV activity at 125.1 g/H SEPTTR 3DC (disease control rating): A: > 80; B: ≤ 80; C: Not Tested; D: No Activity Observed in the Reported Assay; conditions: for SEPTTR 1DP disease control rating, HV activity at 100 ppm / SEPTTR 3DC disease control rating, HV activity at 100 ppm / SEPTTR 1DP, HV activity at 100 ppm (% control rating) / SEPTTR 3DC, HV activity at 100 ppm (% control rating): high volume application; for SEPTTR 1DP disease control rating, HV activity at 100 ppm / SEPTTR 1DP disease control rating, LV activity at 125.1 g/H: 1 day protectant; for SEPTTR 3DC disease control rating, HV activity at 100 ppm / SEPTTR 3DC disease control rating, LV activity at 125.1 g/H: 3 day curative; for SEPTTR disease control, 1DP / SEPTTR disease control, 3DC: HV activity at 100 ppm, wheat; for SEPTTR 1DP disease control rating, HV activity / SEPTTR 3DC disease control rating, HV activity: HV application at 100 ppm
Experimental: (§1) All fungicides were evaluated using the aforementioned method for their activity vs. all target diseases, unless stated otherwise. Wheat leaf blotch and brown rust activity were also evaluated using track spray applications, in which case the fungicides were formulated as EC formulations, containing 0.1% Trycol 5941 in the spray solutions. Wheat plants (variety Yuma) were grown from seed in a greenhouse in 50% mineral soil/50% soil-less Metro mix until the first leaf was fully emerged, with 7-10 seedlings per pot. These plants were inoculated with an aqueous spore suspension of Zymoseptoria tritici either prior to or after fungicide treatments. After inoculation the plants were kept in 100% relative humidity (one day in a dark dew chamber followed by two to three days in a lighted dew chamber at 20° C.) to permit spores to germinate and infect the leaf. The plants were then transferred to a greenhouse set at 20° C. for disease to develop. When disease symptoms were fully expressed on the 1st leaves of untreated plants, infection levels were assessed on a scale of 0 to 100 percent disease severity. Percent disease control was calculated using the ratio of disease severity on treated plants relative to untreated plants.

Puccinia triticina = assay: Wheat brown rust (PUCCRT) disease control on wheat seedlings; format: in vivo; design: key to PUCCRT 3DC, HV activity at 100 ppm (% control rating) / PUCCRT disease control, 3DC / PUCCRT 1DP disease control rating, HV activity / PUCCRT 3DC disease control rating, HV activity / PUCCRT 3DC, LV activity at 125.1 g/H (% Control rating) / PUCCRT 1DP, LV activity at 125.1 g/H (% Control rating) / PUCCRT 3DC disease control rating, LV activity at 125.1 g/H / PUCCRT 1DP disease control rating, LV activity at 125.1 g/H / PUCCRT 3DC disease control rating, HV activity at 100 ppm / PUCCRT 1DP disease control rating, HV activity at 100 ppm / HV activity at 100 ppm PUCCRT 3DC (disease control rating) / LV activity at 125.1 g/H PUCCRT 1DP (disease control rating) / LV activity at 125.1 g/H PUCCRT 3DC (disease control rating): A: > 80; B: ≤ 80; C: Not Tested; D: No Activity Observed in the Reported Assay; conditions: for PUCCRT 1DP disease control rating, HV activity at 100 ppm / PUCCRT 3DC disease control rating, HV activity at 100 ppm / PUCCRT 1DP, HV activity at 100 ppm (% control rating) / PUCCRT 3DC, HV activity at 100 ppm (% control rating): high volume application; for PUCCRT 1DP disease control rating, HV activity at 100 ppm / PUCCRT 1DP disease control rating, LV activity at 125.1 g/H: 1 day protectant; for PUCCRT 3DC disease control rating, HV activity at 100 ppm / PUCCRT 3DC disease control rating, LV activity at 125.1 g/H: 3 day curative; for PUCCRT disease control, 1DP / PUCCRT disease control, 3DC: HV activity at 100 ppm, wheat; for PUCCRT 1DP disease control rating, HV activity / PUCCRT 3DC disease control rating, HV activity: HV application at 100 ppm
Experimental: as §1, with “plants. Example B: Evaluation of Fungicidal Activity: Wheat Brown Rust (Puccinia triticina; Synonym: Puccinia recondita f. sp. Tritici; Bayer Code PUCCRT) Wheat plants (variety Yuma) were grown from seed in a greenhouse in 50% mineral soil/50% soil-less Metro mix until the first leaf was fully emerged, with 7-10 seedlings per pot. These plants were inoculated with an aqueous spore suspension of Puccinia triticina either prior to or after fungicide treatments. […] The plants were then transferred to a greenhouse set at 24° C. for disease to develop. Fungicide formulation, application and disease assessment followed the procedures as described in the Example A.” for “plants.”

[1] = low volume application, 125.1 g/H
[2] = 1 Day Protectant, wheat leaf blotch
[3] = 3 Day Curative, wheat leaf blotch
[4] = 1 Day Protectant, wheat brown rust
[5] = 3 Day Curative, wheat brown rust

SMILES	SEPTTR 1DP disease control rating, HV activity at 100 ppm (Zymoseptoria tritici)	SEPTTR 3DC disease control rating, HV activity at 100 ppm (Zymoseptoria tritici)	PUCCRT 1DP disease control rating, HV activity at 100 ppm (Puccinia triticina)	PUCCRT 3DC disease control rating, HV activity at 100 ppm (Puccinia triticina)	SEPTTR disease control, 1DP (Zymoseptoria tritici; 1 Day Protectant)	SEPTTR disease control, 3DC (Zymoseptoria tritici; 3 Day Curative)	SEPTTR 1DP disease control rating, HV activity (Zymoseptoria tritici; [2])	SEPTTR 3DC disease control rating, HV activity (Zymoseptoria tritici; [3])	SEPTTR 1DP, HV activity at 100 ppm (% control rating) (Zymoseptoria tritici)	SEPTTR 3DC, HV activity at 100 ppm (% control rating) (Zymoseptoria tritici)	PUCCRT disease control, 1DP (Puccinia triticina; 1 Day Protectant)	PUCCRT disease control, 3DC (Puccinia triticina; 3 Day Curative)	PUCCRT 1DP disease control rating, HV activity (Puccinia triticina; [4])	PUCCRT 3DC disease control rating, HV activity (Puccinia triticina; [5])	PUCCRT 1DP, HV activity at 100 ppm (% control rating) (Puccinia triticina)	PUCCRT 3DC, HV activity at 100 ppm (% control rating) (Puccinia triticina)	other results
COc1ccnc(C(=O)NC(C)C(=O)OC(C)C(Oc2ccccc2)c2nccs2)c1O (mixture of isomers) [Cmpd 808]	B (≤ 80)	D	A (> 80)	B (≤ 80)													
COc1ccnc(C(=O)NC(Cc2ccccc2)C(=O)OC(C)C(Oc2ccccc2)C(C)C)c1O (mixture of isomers) [Cmpd 812]	B (≤ 80)	B (≤ 80)	A (> 80)	A (> 80)													
COc1ccnc(C(=O)NC(C)C(=O)OC(C)C(Oc2ccc(F)cc2)c2ccc(F)cc2)c1O (mixture of isomers) [Cmpd 838]	A (> 80)	A (> 80)	A (> 80)	B (≤ 80)													
COc1ccnc(C(=O)NC(C)C(=O)OC(C)C(Oc2ccccc2)c2nccs2)c1OCOC(C)=O (mixture of isomers) [Cmpd 861]																	SEPTTR 1DP disease control rating, LV activity at 125.1 g/H (Zymoseptoria tritici; [1]): D; SEPTTR 3DC disease control rating, LV activity at 125.1 g/H (Zymoseptoria tritici; [1]): B (≤ 80); PUCCRT 1DP disease control rating, LV activity at 125.1 g/H (Puccinia triticina; [1]): A (> 80); PUCCRT 3DC disease control rating, LV activity at 125.1 g/H (Puccinia triticina; [1]): A (> 80)
COc1ccnc(C(=O)NC(C)C(=O)OC(C)(C)C(Oc2ccccc2)C(C)C)c1OCOC(C)=O (mixture of isomers) [Cmpd 903]																	SEPTTR 1DP disease control rating, LV activity at 125.1 g/H (Zymoseptoria tritici; [1]): B (≤ 80); SEPTTR 3DC disease control rating, LV activity at 125.1 g/H (Zymoseptoria tritici; [1]): A (> 80); PUCCRT 1DP disease control rating, LV activity at 125.1 g/H (Puccinia triticina; [1]): B (≤ 80); PUCCRT 3DC disease control rating, LV activity at 125.1 g/H (Puccinia triticina; [1]): D
COc1ccnc(C(=O)NC(C(=O)OC(C)C(Oc2ccccc2)C(C)C)C(F)(F)F)c1O (mixture of isomers) [Cmpd 1018]	A (> 80)	D	A (> 80)	A (> 80)													
COc1ccnc(C(=O)NC(C(=O)OC(C)C(Oc2ccccc2)C(C)C)C(F)(F)F)c1OCOC(C)=O (mixture of isomers) [Cmpd 1073]																	LV activity at 125.1 g/H SEPTTR 1DP (disease control rating) (Zymoseptoria tritici; low volume application, 125.1 g/H, 1 Day Protectant, wheat leaf blotch): B (≤ 80); LV activity at 125.1 g/H SEPTTR 3DC (disease control rating) (Zymoseptoria tritici; low volume application, 125.1 g/H, 3 Day Curative, wheat leaf blotch): B (≤ 80); LV activity at 125.1 g/H PUCCRT 1DP (disease control rating) (Puccinia triticina; low volume application, 125.1 g/H, 1 Day Protectant, wheat brown rust): A (> 80); LV activity at 125.1 g/H PUCCRT 3DC (disease control rating) (Puccinia triticina; low volume application, 125.1 g/H, 3 Day Curative, wheat brown rust): A (> 80)
CCCOC(CC)C(Oc1ccccc1)C(C)OC(=O)C(C)NC(=O)c1nccc(OC)c1O (stereo not shown) [Cmpd 289]					B (≤ 80)	A (> 80)	B (≤ 80)	A (> 80)	B (≤ 80)	A (> 80)	A (> 80)	A (> 80)	A (> 80)	A (> 80)	A (> 80)	A (> 80)	
CCCOC(CC)C(Oc1ccccc1)C(C)OC(=O)C(NC(=O)c1nccc(OC)c1O)C(C)C (stereo not shown) [Cmpd 290]					B (≤ 80)	B (≤ 80)	B (≤ 80)	B (≤ 80)	B (≤ 80)	B (≤ 80)	A (> 80)	B (≤ 80)	A (> 80)	B (≤ 80)	A (> 80)	B (≤ 80)	
CCCOC(CC)C(Oc1ccccc1)C(C)OC(=O)C(CC(C)C)NC(=O)c1nccc(OC)c1O (stereo not shown) [Cmpd 291]					D	D	D	D	D	D	B (≤ 80)	D	B (≤ 80)	D	B (≤ 80)	D	
CC[C@H](Cc1ccccc1)[C@@H](OCC(C)C)[C@H](C)OC(=O)[C@H](C)NC(=O)c1nccc(OC)c1O [Cmpd 293, (S)-(2S,3R,4R)-4-benzyl-3-isobutoxyhexan-2-yl-2-(3-hydroxy-4-methoxypicolinamido)propanoate]					A (> 80)	B (≤ 80)	A (> 80)	B (≤ 80)	A (> 80)	B (≤ 80)	A (> 80)	B (≤ 80)	A (> 80)	B (≤ 80)	A (> 80)	B (≤ 80)	
CCCOC(CC)C(Oc1ccccc1)C(C)OC(=O)C(C)NC(=O)c1nccc(OC)c1O (stereo not shown) [Cmpd 295]					D	B (≤ 80)	D	B (≤ 80)	D	B (≤ 80)	B (≤ 80)	B (≤ 80)	B (≤ 80)	B (≤ 80)	B (≤ 80)	B (≤ 80)	

Source: patent US20180000085A1, “USE OF PICOLINAMIDE COMPOUNDS WITH FUNGICIDAL ACTIVITY” (DOW AGROSCIENCES LLC, priority 2014, published 2018)
